# According to patent EP0108147B1, “Use of a protoberberine alkaloid and composition containing same” (MAROKO, Peter R., priority 1982, dated 1983):
# Where two headings read alike, the source gives them in different places.
# What was measured:
# in vivo = assay: in vivo; design: species or system rats; conditions: rat
# Procedure: Preferential concentration of berberine in the heart rather than in other thoracic organs or the liver is a sine qua non for a good imaging agent. Berberine level measurements were done spectrophotometrically. The experiment consisted of injecting 3.5 mg/Kg of berberine ([…]) intravenously and killing the rats after 15 minutes, 90 minutes, 6 hours, 24 hours, 48 hours and 1 week. Each group consisted of 5-6 rats. A control group (no berberine administration) was used to determine the absorbance of the different organs at that wave length. […] It was released rapidly from the heart thus showing no significant tendency to accumulate in that organ. Its concentrate was 1, 1 and 3 pg/g in the lungs and 0.2 and 0 in the skeletal muscles or in the blood at the same time intervals.
# dogs = assay: Myocardial oxygen consumption (MV02) and epicardial ST segment elevation experiments; assay type: in vivo
# Source text: These changes were due to lower. myocardial oxygen consumption during the occlusion with berberine treatment. […] This is quite an advanageous therapeutic combination of properties which further distinguish the compounds used in the invention from the conventional drugs.
# [1] = system: closed-chest anesthetized dogs; conditions: for rise of diastolic pressure: only digitalis
# Procedure: A study was carried out to examine the effects of the simultaneous administration of berberine on digitalis (i.e. ouabain) produced arrhythmias.
# The experiments were conducted in closed-chest anesthetized dogs which were randomized to three groups. All received ouabain 0.03 mg/Kg as a bolus intravenously and thereafter a continuous infusion with a constant rate of 0.0006 mg/Kg/min until death. […] The second group received simultaneously berberine 1 mg/Kg intravenously as a bolus and then 0.2 mg/Kg/min as a continous infusion. The third group received berberine only after the appearance of VEA in a frequency of 50% of more of all systoles.
# Moreover, the effects of intravenous bolus injection of berberine (0.4 to 1 mg/Kg) was studied (in comparison to dextrose 5% injection).
# [2] = system: healthy adult mongrel dogs; assay: Protocol M: hemodynamics in anesthetized open-chest dogs, systolic arterial pressure held constant; assay type: in vivo
# Mongrel dogs [3] = assay: Protocol HV: acute left ventricular failure by coronary microsphere embolization, closed chest; assay type: in vivo; conditions: ouabain 0.03 mg/kg during 30 minutes
# Procedure: - Experiments were carried out in 21 mongrel dogs of either sex with body weight between 19 and 39 kg. Anesthesia was induced with sodium pentobarbital, 25 mg/kg of body weight intravenously, and small supplementary doses were given as necessary to maintain a constant level of anesthesia. The dogs were placed in the left lateral position and ventilation was maintained through a cuffed endotracheal tube with a volume-controlled respirator (Harvard Apparatus Co., Millis, Massachusetts). Polyethylene cannuleae were placed into the jugular and femoral veins for intravenous infusions and drug adminstration. Electrocardiograms (lead aVF) were monitored continuously throughout the experiments.
# A polyethylene cannula was introduced into the aorta through the left carotid artery to record arterial pressure. (Stantham P23 ID transducer, Stantham Instruments, Inc. Oxnard, California). A Millar microtip transducer catheter (Millar Instruments, Inc., Houston, Texas) was introduced into the left ventricular cavity through the femoral artery to measure left ventricular pressures. For adjustment of zero level, left ventricular pressure was also measured through the fluid-filled lumen in the Millar catheter (Statham P23 ID transducer). The maximal rate of rise of left ventricular pressure, LV dP/dt, was recorded by means of a differentiator. All these parameters were recorded continuously on a polygraph (Gould 2800, Gould Instruments, Cleveland, Ohio). Cardiac output was determined by the thermodilution technique, using a thermistor catheter in the pulmonary artery and calculated by a cardiac output computer (Elecath, Electro- catheter Corp., Rahway, New Jersey). The coefficient of variation for duplicate CO measurements was 5%. In addition to the parameters directly obtained, total peripheral vascular resistance was calculated from the ratio of […] and cardiac output. Stroke volume was calculated by dividing cardiac output by heart rate. Heparin (Invendex) (5000 IU) was administered to avoid clotting of the catheters.
# To induce acute left vetricular failure, initially the left main coronary artery was catheterized with a Judkin coronary artery catheter (7F, ISCI Cardiology and Radiology Products, Billerica, Massachusetts) under fluoroscopic control. It was introduced through a femoral artery, and polystyrene microspheres (3M Company, St. Paul, Minnesota) with a diameter of 52. 5 ± 4.0 µm (mean±SD) were injected into the coronary artery. The microspheres were used in a concentration of 1 mg (i.e., 12,000) per ml saline. The first dose of microsphere solution was 0.5 mi/kg body weight, and all subsequent doses were 0.25 ml/kg body weight, administered every 5 minutes. Administration of microspheres was discontinued when LV/dP/dt had been reduced by 30% or more when measured 4 minutes after the last dose. All dogs received prophylactic antiarrhythmic treatment with intravenous lidocaine, 1.5 mg/kg body weight as a bolus 20 min after the end of embolization, followed by a continuous infusion of […].
# Forty-five minutes were allowed to elapse to verify the stability of the preparation. If Lv dP/dt or left ventricular end diastolic pressure had changed by 20% or more between 30 and 45 minutes after embolization, the dogs were excluded from this study and not randomized. Forty-five minutes after the end of embolization, the dogs were assigned randomly to three groups: a) Berberine-treated group, 0.2 mg/kg/ min, dissolved in 60 ml of a solution of 5% dextrose in water administered in a constant infusion during 30 minutes; b) ouabain-treated group, 0.03 mg/kg was administered in 60 ml of a 5% solution of dextrose in water during 30 minutes; and c) Control group, administration of 60 ml of a 5% solution of dextrose in water during 30 min. […]
# [4] = system: anesthetized closed chest dogs; assay: Association of ouabain and berberine on contractility (LV dP/dt), constant systolic pressure; assay type: in vivo; conditions: ouabain 0.03 mg/Kg i.v. bolus
# Procedure: In anesthetized closed chest dogs the systolic arterial pressure was maintained constant with a reservoir full of heparinized blood (as in protocol "M" and "Z" described above) and a "pigtail" and Millar catheter were introduced into the left ventricular cavity (as in protocol "Z" and "HV", described above). All data was recorded on 8 channel polygraph (Gould Instruments) with a paper speed of 200 mm/s when necessary and at 2 mm/s constantly.
# Mongrel dogs [5] = assay: Protocol Z: continuous 35 minute infusion in anesthetized open-chest dogs, constant left ventricular pressure; assay type: in vivo
# Procedure: Mongrel dogs weighing between 15 and 25 kg were anesthetized with intravenous sodium thiamylal (20 mg/kg initially with additional doses given as needed). The dogs were intubated endotracheally, and respiration was maintained by a Harvard respirator. The chest was then opened in the fourth left intercostal space and the heart suspended temporarily in a pericardial cradle.
# Aortic pressures were recorded through a polyethylene cannula introduced through the carotid artery (Statham P23 Db pressure transducer) and electrocardiogram (lead aVF) were recorded throughout the experiment on a polygraph (Gould Instruments). Another polyethylene cannula was placed in the left atrium for measurement of atrial pressure (Statham P23 Db pressure transducer). An electromagnetic flowmeter (Biotonix Laboratories) was placed around the ascending aorta and the aortic flow was recorded on a polygraph. Two catheters were inserted into the left ventricle through a femoral artery.
# The first ("pigtail") served as a reference, while the second (Millar microtip transducer catheter) was connected through a Millar transducer (Millar Instruments, Houston, Texas) to the polygraph, where both left ventricular pressure curves were recorded simultaneously. The left ventricular end diastolic pressure was recorded separately through a Millar catheter. The first derivative of the left ventricular pressure (dP/dt) was obtained by electronic differentiation of the left ventricular pulse recorded through the Millar catheter.
# A reservoir of blood was connected with the femoral artery in order to maintain constant left ventricular pressure during the experiment. In this protocol, similarly to protocol M, systemic arterial pressure was maintained constant in order to have accurate measurements of dP/dt which represent well left ventricular contractility when the systolic pressure is maintained constant. However, calculated total peripheral resistance will be higher (an underestimation of the fall). After stabilization of hemodynamics as reflected by continuously monitored parameters for 15 minutes, the substances to be studied were infused intravenously using a Harvard infusion pump. Registrations were made every 5 minutes at a paper speed of 200 mm/second, while all the parameters were recorded constantly at a speed of 2 mm/second. The dogs were randomly assigned to several groups: • Group a) Control - in these dogs a solution of 5% dextrose in water was infused in the same quantity as in the berberine treated animals (n = 7).
# In all berberine, berberrubine coreximine and tetrahydropalmatine groiups the compounds were infused at constant rate for 35 minutes and the data analyzed at 5 minute intervals. • Group b) Berberine 0.7 mg/Kg/min (n = 10). • Group c) Berberine 0.2 mg/Kg/min (n = 7). • Group d) Berberine 0.02 mg/Kg/min (n = 7). • Group e) Berberrubine 0.2 mg/Kg/min (n = 7). • Group f) Tetrahydropalmatine 0.2 mg/Kg/min (n = 4). • Group g) Coreximine 0.2 mg/Kg/min (n = 8).
# Therefore, group b, c and d were used to analyze the various effects of continuous infusion of berberine and its dose response and groups e and f and g used to examine the effects of these three other proberberines. Moreover, their effects were compared to the berberine treated dogs with the same dose (i.e. Group c).
# dog = assay: Protocol M simile: high or repetitive infusions in single dogs; assay type: in vivo
# Procedure: It is noted that the dP/dt increased by 350% after the eighth dose and dF/dt by 450%.
# In one dog using protocol M simile, 240 mg/Kg of berberine HCI was administered and dP/dt increased by 75%, aortic flow by 67%, heart rate fell from 150 to 114 beats/min., diastolic aortic pressure fell from 92 to 67 mmHg, and left atrial pressure fell from 8.5 to 7.5 mmHg.
# When this type of experiment was repeated with tetrahydropalmatine, a first dose of 3.5 mg/Kg was given without maintaining the pressure constant and arterial pressure fell from 142/115 to 118/90 mmHg. When the second infusion was given with constant pressure, dP/dt increased by 17%.
compound,measurement,setting,value
"COc1ccc2cc3[n+](cc2c1OC)CCc1cc2c(cc1-3)OCO2 [berberine (S04), berberine]",concentrate in the liver,in vivo; 15 min,0 1l9/g
same,concentrate in the liver,in vivo; 90 min,6 1l9/g
same,concentrate in the liver,in vivo; 6 h,2 1l9/g
same,concentration at 15 min,in vivo; concentrate in the lungs,0.001 ng/g
same,concentration at 90 min,in vivo; concentrate in the lungs,0.001 ng/g
same,concentration at 6 h,in vivo; concentrate in the lungs,0.003 ng/g
"CC(C)NCC(O)c1ccc(O)c(O)c1 (centres unmarked) [isoproterenol, reference compound]",epicardial ST segment elevations,dogs; after coronary artery occlusion,increased
same,mycardial oxygen consumption (MV02),"dogs; non-failing heart, dose that increases LV dP/dt similarly",significantly augmented
"C[C@@H]1O[C@@H](O[C@H]2C[C@@H](O)[C@]3(CO)[C@H]4[C@H](O)C[C@]5(C)[C@@H](C6=CC(=O)OC6)CC[C@]5(O)[C@@H]4CC[C@]3(O)C2)[C@H](O)[C@H](O)[C@H]1O [ouabain, reference compound]",dose of ouabain to provoke VT,"[1]; control situation, ouabain alone",0.04 mg/kg
same,amount of ouabain that provoked VT,"[1]; controls, ouabain alone",0.048 mg/kg
same,flow in the descending aorta,"[2]; after ouabain 0.03 mg/Kg i.v. bolus, from 1195 ± 89",1018 ± 93 mL/min
same,diastolic aortic pressure,[2]; ouabain 0.03 mg/Kg i.v. bolus,did not change significantly
same,increase of calculated peripheral resistance,[2]; ouabain 0.03 mg/Kg i.v. bolus,18%
same,decrease of flow in the descending aorta,"[2]; ouabain 0.03 mg/Kg i.v. bolus, 11 dogs, after the 90 minute experiments",15%
same,hemodynamic parameters from before to 30 minutes after the start of drug administration,Mongrel dogs [3],did not change any of the hemodynamic parameters
same,"increase in dP/dt, of the initial value of peak LV dP/dt",[4]; 5 minutes,17±2%
same,"increase in dP/dt, of the initial value of peak LV dP/dt",[4]; 10 minutes,24±3%
same,"increase in dP/dt, of the initial value of peak LV dP/dt",[4]; 15 minutes,34±4%
same,"increase in dP/dt, of the initial value of peak LV dP/dt",[4]; 20 minutes,36±4%
same,"increase in dP/dt, of the initial value of peak LV dP/dt",[4]; 25 minutes,44±6%
same,"increase in dP/dt, of the initial value of peak LV dP/dt",[4]; 30 minutes,49±7%
COc1cc2c(cc1OC)[C@@H]1Cc3ccc(OC)c(OC)c3CN1CC2 [tetrahydropalmatine],reduction of calculated peripheral resistance,Mongrel dogs [5]; 0.2 mg/Kg/min,over 30%
same,fall of heart rate (HR),Mongrel dogs [5]; 0.2 mg/Kg/min (Table XIII),5.5%
same,arterial pressure,"dog; first dose 3.5 mg/Kg, pressure not held constant, from 142/115",118/90
same,increase of dP/dt,"dog; second infusion, constant pressure",17%
digitalis [reference compound],rise of diastolic pressure,[1]; 10 minutes,31±9%
same,rise of diastolic pressure,[1]; 20 minutes,16±11%
same,rise of diastolic pressure,[1]; 30 minutes,34±15%
same,rise of diastolic pressure,[1]; 60 minutes,16±7%
